Measured values as given in patent US20160367961A1, “METHOD AND COMPOSITION FOR PEPTIDE C[…] PROTEASE TREATMENT” (Roche Sequencing Solutions, Inc., priority 2015, published 2016).
Square brackets hold non-standard residues; d marks the D form. Peptide text beside a SMILES is read from it.

Experiments:
streptavidin = streptavidin (Streptomyces avidinii, UniProt P22629); assay: biochemical
Method: Surface plasmon resonance (SPR) experiments were performed on a BIAcore X100 (GE Healthcare). The running buffer was HBS-EP+. To prepare a streptavidin coated chip, 100 ug/mL streptavidin in Acetate 5.0 immobilization buffer was coupled to flow cell 2 of a CM5 chip using the Amine Coupling Kit (GE Healthcare. The chip was then conditioned by flowing a solution containing 0.2 M NaCl and 10 mM NaOH in water over the prepared chip for 60 seconds. The binding affinities of the cyclic and linear peptides were measured against the prepared streptavidin chip using a multiple cycle experiment with base regeneration between each step. Here, seven prepared concentrations of peptide in HBS-EP+ buffer were flowed over the streptavidin chip for 30 seconds and then allowed to dissociate for 60 seconds. Following each peptide concentration, the streptavidin chip was regenerated by flowing 0.2 M NaCl and 10 mM NaOH in water over the chip for 30 seconds followed by a stabilization period of 120 seconds. Kinetic parameters were determined using BIAcore X100 Evaluation Software Version 2.0.1.

streptavidin-Cy5 = streptavidin-Cy5 (Streptomyces avidinii, UniProt P22629); assay: Streptavidin-Cy5 binding to cyclic/linear peptide microarray, Cy5 fluorescence scan
Method: Slides were bound with […] streptavidin-Cy5 in 30 mL binding buffer for 30 minutes at room temperature. Binding buffer contained 1% alkali soluble casein and 0.05% tween-20 in 1×TBS, pH 7.4. After 30 minutes, slides were washed twice in 1×TBS buffer for 1 minute, water for 30 seconds, and spun to dryness.
Cy5 fluorescence intensity of the arrays was measured with MS200 scanner (Roche NimbleGen) at resolution 2 um, wavelength 635 nm, gain 25% and laser intensity 100%. Cy5 signal intensities were extracted using Image Extraction Software (Roche NimbleGen). Data pre-processing, normalization and statistical tests were done in R. Data visualization and analysis were performed with Spotfire 6.5.0 (Tibco, Boston, Mass.) software platform.

[1] = extension of HPQ-specific design JXXHPQXXJU, all J combinations (Example 12), FIG. 15

streptavidin, sequence (P22629 25-183, species assumed): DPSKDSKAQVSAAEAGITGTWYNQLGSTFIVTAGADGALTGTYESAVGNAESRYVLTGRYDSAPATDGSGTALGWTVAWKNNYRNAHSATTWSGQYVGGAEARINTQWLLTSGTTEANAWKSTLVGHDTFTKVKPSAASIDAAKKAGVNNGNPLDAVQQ
streptavidin-Cy5, sequence (P22629 25-183): as the sequence (P22629 25-183, species assumed) above

## CC(C)C[C@@H]1NC(=O)[C@H](CCC(N)=O)NC(=O)CNC(=O)CNC(=O)[C@H](CC(N)=O)NC(=O)[C@H](CCC(N)=O)NC(=O)[C@@H]2CCCN2C(=O)[C@H](Cc2c[nH]cn2)NC(=O)[C@H](CC(=O)O)NC(=O)[C@H](Cc2ccc(O)cc2)NC1=O [cyclic LYDHPQNGGQ, LYDHPQNGGQ] (cyclo(DHPQNGGQLY))
streptavidin
  Kd: 9.4 µM

## NC(=O)CC[C@@H]1NC(=O)[C@H](Cc2c[nH]c3ccccc23)NC(=O)[C@H]2CCCN2C(=O)[C@H](CCC(N)=O)NC(=O)[C@H](CC(N)=O)NC1=O [cyclic NQpWQ, NQpWQ] (cyclo(NQ[dP]WQ))
streptavidin
  Kd: 61.3 µM

## NC(=O)CC[C@@H]1NC(=O)CNC(=O)CNC(=O)[C@H](CC(N)=O)NC(=O)[C@H](CCC(N)=O)NC(=O)[C@@H]2CCCN2C(=O)[C@H](Cc2c[nH]cn2)NC(=O)[C@H](CC(=O)O)NC(=O)[C@H](CC(N)=O)NC(=O)[C@H](CCC(N)=O)NC1=O [cyclic QNDHPQNGGQ, QNDHPQNGGQ] (cyclo(DHPQNGGQQN))
streptavidin
  Kd: 10.8 µM

## NC(=O)CC[C@H](NC(=O)[C@H](Cc1c[nH]c2ccccc12)NC(=O)[C@H]1CCCN1C(=O)[C@H](CCC(N)=O)NC(=O)[C@@H](N)CC(N)=O)C(=O)O [linear NH2-NQpWQ-COOH, NH2-NQpWQ-COOH] (H-NQ[dP]WQ-OH)
streptavidin
  Kd: > 2000 µM

## H-LYDHPQNGGQ-OH [linear NH2-LYDHPQNGGQ-COOH, NH2-LYDHPQNGGQ-COOH]
streptavidin
  Kd: 100 µM

## H-QNDHPQNGGQ-OH [linear NH2-QNDHPQNGGQ-COOH, NH2-QNDHPQNGGQ-COOH]
streptavidin
  Kd: 320 µM

## LYDHPQNGGU (cyclo(LYDHPQNGGE); also: position 10: U in name, array-bound via glutamate side chain) [cylic LYDHPQNGGU, U = glutamate attached to the surface through its side chain]
streptavidin-Cy5; [1]
  cyclic fluorescent intensity: highest cyclic intensity

## NQpWU (cyclo(NQ[dP]WE); also: position 5: U in name, array-bound via glutamate side chain) [cylic NQpWU, U = glutamate attached to the surface through its side chain, p = D-proline]
streptavidin-Cy5; peptide library of the format XXXXU (Example 9), cyclic subarray, FIG. 10
  cyclic fluorescent intensity: highest cyclic fluorescent intensity

## QNDHPQNGGU (cyclo(QNDHPQNGGE); also: position 10: U in name, array-bound via glutamate side chain) [cyclic QNDHPQNGGU, U = glutamate attached to the surface through its side chain]
streptavidin-Cy5; extension of HPQ-specific design JXXHPQXXJU (Example 12), FIG. 15, positive logFC = preference for cyclic peptide
  log fold change (logFC) between cyclic and linear fluorescent intensity: high logFC
streptavidin-Cy5; [1]
  cyclic fluorescent intensity: high cyclic intensitiy
